Test [1] has as its system Aspergillus fumigatus. The test is described as follows: MIC, twofold serial broth dilution assay, Aspergillus fumigatus. It counts as cell-based, Aspergillus fumigatus ATCC 26934. The following applies: Af, 30°, 48 hours. How it is done: (§1) The generic name for the compound is 3-Methoxysampangine. The antifungal activity of the compound was determined by in vitro evaluation against Candida albicans NIH B311, Cryptococcus neoformans ATCC 32264, and Aspergillus fumigatus ATCC 26934 using the known agar-well diffusion assay techniques with the following modifications.
(§2) Candida albicans NIH B311 used to induce experimental disseminated candidiasis was used for the initial qualitative evaluation of anticandidal activity. The organism was grown in Sabouraud-dextrose broth (SDB) for 24 hours at 37°, at which time the cells were harvested by centrifugation at (4°, 2000 rpm, 3 min.). After centrifugation, the cells were washed and suspended in sterile 0.9% saline to give a final concentration of 10^6 colony forming units (CFU) per ml (adjusted using a hemocytometer). Inocula of Cryptococcus neoformans and Aspergillus fumigatus were prepared by suspension of the surface growth of stock agar slants in sterile H2 O. Culture plates (15×100 mm) for the qualitative assay were prepared from 25 ml of Sabouraud-dextrose agar for Candida albicans, and Mycophil™ agar for Cryptococcus neoformans and Aspergillus fumigatus. Using sterile cotton swabs, the plates were streaked with the suspension of appropriate test organism. Cylindrical plugs were removed from the agar plates by means of sterile cork borer to produce wells with a diameter of approximately 11 mm. To the well was added 100 μl of solution or suspension of an extract, fraction, or pure compound. Crude extracts and fractions were tested at a concentration of 20 mg/ml, whereas pure compounds were tested at 1 mg/ml. When solvents other than water, ethanol, methanol, dimethylsulfoxide (DMSO), dimethylformamide (DMF), or acetone were required to dissolve extracts or compounds, solvent blanks were included. Antifungal activity was recorded as the width (in mm) of the zone of inhibition, measured from the edge of the agar well to the edge of the zone, following incubation of the plates for 24 hours (37° for Candida albicans, 30° for Aspergillus fumigatus and 26° for Cryptococcus neoformans). The antifungal agents amphotericin B and ketoconazole were included as positive controls in each assay.
(§3) The method used to determine the minimum inhibitory concentration (MIC) was the twofold serial broth dilution assay in one or more of the following broth media: yeast nitrogen broth, Mycophil™ broth and Saboraud-dextrose broth (SDB). The inoculum for the MIC determination was prepared as described above for the qualitative evaluation. Using a calibrated sterile wire loop, each tube was inoculated with 10 μl of the suspension. The MIC value was taken as the lowest concentration of compound that inhibited the growth of the test organisms after an appropriate incubation period (37° for 24 hours for Candida albicans; 30° for 48 hours for Aspergillus fumigatus; 26° for 48 hours for Cryptococcus neoformans). The antifungal agent amphotericin B was included as positive control in each assay.

For test [2], the system named is Cryptococcus neoformans. The test is described as follows: MIC, twofold serial broth dilution assay, Cryptococcus neoformans. Type of test: cell-based, Cryptococcus neoformans ATCC 32264. The following applies: 48 h, Cn, 26°. Here is the method:
as §1, §2, §3
In general terms: Broth dilution looks for growth in wells or tubes with falling amounts of substance.

Test [3] concerns Candida albicans, Cryptococcus neoformans and Aspergillus fumigatus. The experiment in a line: in vitro antifungal activity, overall statement in words. As to conditions: against both yeasts and the filamentous fungus. It counts as cell-based. Here is the method:
as §1, §2
The method used to determine the minimum inhibitory concentration (MIC) was the twofold serial broth dilution assay in one or more of the following broth media: yeast nitrogen broth, Mycophil™ broth and Saboraud-dextrose broth (SDB). The inoculum for the MIC determination was prepared as described above for the qualitative evaluation. Using a calibrated sterile wire loop, each tube was inoculated with 10 μl of the suspension. […]

Test [4] relates to Candida albicans. The experiment in a line: MIC, twofold serial broth dilution assay, Candida albicans. It counts as cell-based, Candida albicans NIH B311. The following applies: 24 h, 37°. How it is done: as §2, §3
Test [5] deals with Candida albicans. The following applies: J. Natural Products 1987, Hufford et al.; cited from earlier work.
Setting [6] is: Cryptococcus neoformans, SDB (Sabouraud dextrose broth).
[7] abbreviates: Candida albicans, Ca B311, SDB (Sabouraud dextrose broth).
Where [8] appears, read: YNB (yeast nitrogen base broth).
Where [9] appears, read: Cryptococcus neoformans, MYCO (Mycophil broth).
The mark [10] stands for this setting: Ca B311, YNB (yeast nitrogen base broth).
The mark [11] stands for this setting: Candida albicans, Ca B311, MYCO (Mycophil broth).

Structures are written as SMILES. ≈ marks a conversion by molar mass, not a printed value. Entries after “also recorded” stand apart in the source; their conditions may differ.

Consider seven compounds from patent US5128344A, “Sampangine and derivatives useful as an antifungal agent” (University of Mississippi, priority 1990, dated 1992).

As usually defined, the MIC is the smallest concentration in the dilution series that meets the test's criterion for growth inhibition.

In the case of `COc1cnc2c3c(nccc13)C(=O)c1ccccc1-2` [3-Methoxysampangine], the MIC in test [1] (SDB (Sabouraud dextrose broth)) was 3.12 µg/mL (≈ 11.9 µM); in test [2] (setting [6]), 0.2 µg/mL (≈ 0.763 µM); in test [4] (setting [7]) it was 3.12 µg/mL (≈ 11.9 µM). In test [3], the “antifungal activity (in words)” value is reported as “significant antifungal activity; also recorded: remarkable antifungal properties”.

As to `O=C1c2ccccc2-c2nccc3c(Br)cnc1c23` [4-Bromosampangine], the MIC is 50 µg/mL (≈ 161 µM) in test [1] (MYCO (Mycophil broth)); less than 0.2 µg/mL in test [2] (setting [8]); less than 0.2 µg/mL in test [2] (setting [9]); 0.39 µg/mL (≈ 1.25 µM) in test [2] (setting [6]); 12.5 µg/mL (≈ 40.2 µM) in test [4] (setting [10]); 25 µg/mL (≈ 80.4 µM) in test [4] (setting [11]). For the same compound, the lowest concentration to inhibit growth in test [4] (setting [7]) (MIC) was 25 µg/mL (≈ 80.4 µM). Moreover, in test [3], the “antifungal activity (in words)” value is “significant antifungal activity”.

Regarding `COc1cnc2c3c(nccc13)-c1ccccc1C2=O` [4-Methoxysampangine], the minimum inhibitory concentration (MIC) in test [2] (setting [8]) turned out to be 12.5 µg/mL (≈ 47.7 µM); in test [2] (setting [9]), 1.56 µg/mL (≈ 5.95 µM); in test [2] (setting [6]) it was 3.12 µg/mL (≈ 11.9 µM); in test [4] (setting [10]), 3.12 µg/mL (≈ 11.9 µM); in test [4] (setting [11]), 100 µg/mL (≈ 381 µM); in test [4] (setting [7]), 100 µg/mL (≈ 381 µM). Further, the “antifungal activity (in words)” value in test [3] was “significant antifungal activity”.

On to `C[C@@H]1[C@H](O)[C@@H](C)/C=C/C=C/C=C/C=C/C=C/C=C/C=C/[C@H](O[C@@H]2O[C@H](C)[C@@H](O)[C@H](N)[C@@H]2O)C[C@@H]2O[C@](O)(C[C@@H](O)C[C@@H](O)[C@H](O)CC[C@@H](O)C[C@@H](O)CC(=O)O[C@H]1C)C[C@H](O)[C@H]2C(=O)O` [Amphotericin B, reference compound], for which the minimal inhibitory concentration (MIC) was found to be 3.12 µg/mL (≈ 3.38 µM) in test [1] (MYCO (Mycophil broth)), 0.2 µg/mL (≈ 0.216 µM) in test [2] (setting [9]) and 0.2 µg/mL (≈ 0.216 µM) in test [4] (setting [11]).

Turning to `O=C1c2ccccc2-c2nccc3c2c1nc1ccccc13` [Benzo[4,5]sampangine], the MIC in test [1] (MYCO (Mycophil broth)) was 0.39 µg/mL (≈ 1.38 µM); in test [2] (setting [8]), 1.56 µg/mL (≈ 5.53 µM); in test [2] (setting [9]), less than 0.2 µg/mL; in test [2] (setting [6]) it was less than 0.2 µg/mL; in test [4] (setting [10]), 3.12 µg/mL (≈ 11.1 µM); in test [4] (setting [11]), 50 µg/mL (≈ 177 µM). Further, in test [4] (setting [7]), the MIC worked out at 1.56 µg/mL (≈ 5.53 µM).

For the compound `O=C1c2ccccc2-c2nccc3ccnc1c23` [Sampangine], the MIC in test [1] (MYCO (Mycophil broth)) was 1.56 µg/mL (≈ 6.72 µM); in test [2] (YNB (yeast nitrogen base broth) (original)) it was less than 0.005 µg/mL; in test [2] (setting [8]) it was less than 0.2 µg/mL; in test [2] (setting [9]), 0.78 µg/mL (≈ 3.36 µM); in test [2] (setting [6]) it was less than 0.2 µg/mL; in test [4] (Ca B311, YNB (yeast nitrogen base broth) (original)), 1.56 µg/mL (≈ 6.72 µM). The values for the minimal inhibitory concentration (MIC) in test [4] (setting [10]), in test [4] (setting [11]) and in test [4] (setting [7]) were 0.78 µg/mL (≈ 3.36 µM), 12.5 µg/mL (≈ 53.8 µM) and 6.25 µg/mL (≈ 26.9 µM), respectively. Besides, in test [3], the “antifungal activity (in words)” value was “significant antifungal activity”.

For the compound `c1ccc2c(c1)-c1nccc3ccnc-2c13` [eupolauridine], the “anticandidal properties (in words)” value in test [5] is listed as “possibly remarkable anticandidal properties”.
